Results as given in paper PMC6646405, “A quantitative, high-throughput method identifies protein–glycan interactions via mass spectrometry” (Communications Biology, 2019).
Where “and” joins values, the source holds several entries; their conditions need not be identical. Identical values can stand only once.

Experiments:
[1] = system: family 51 carbohydrate binding module (CBM51); assay: CUPRA library screening and affinity, CBM51; conditions: 25uM CBM51; mean of 4 DIi values, FigS3a
Protocol: (§1) Unless otherwise noted, the measurements were performed at 25 °C. […] We identified specific ligands from the depletion index (DIi, Eq. 1) – the change in the fractional abundance (Fi, Eq. 2) ratio of ligand i-bound and free ^UniPproxy ions upon addition of GBP. Prior to calculating Fi, we treated each mass spectrum with the Sliding Window Adducts Removal Method (SWARM)[18] to remove contributions to the abundance of ^UniPproxy -OS^mod complex ions from adducts, formed by the ESI process, of neighbouring complex ions (Supplementary Fig. 2). Shown in Fig. 2a is a summary of the DIi measured by CUPRA screening of the 66-component library against S4 (50 μM). As expected, the average DIi for this negative control is close to 1.0 (0.99 ± 0.03). In contrast, CUPRA screening against the positive controls produced decreases in DIi for one or more of the library components. […] Application of CUPRA to human CD22, part of an important class of Neu5Ac-binding GBPs implicated in both innate and adaptive immunity, correctly identified HMO08 as a ligand (Supplementary Fig. 4a). CUPRA screening of MAA at high concentration (50 μM) identified HMO03 and GA06 as ligands. […]
(§2) Using SWARM-treated mass spectra, DIi was calculated for each ligand from the ratio of the fractional abundances (Fi) of ligand (i)-bound and free ^UniPproxy ions in the presence (+GBP) and absence (-GBP) of GBP, Eqs. […]

[2] = molecular target: Cholera toxin B subunit homopentamer (CTB5) (Vibrio cholerae serotype O1, UniProt P01556); assay type: binding
human siglec-2 (CD22) = molecular target: T1, human siglec-2 (CD22) (Homo sapiens, UniProt P20273); assay: CUPRA library screening and affinity, siglec-2; assay type: binding; conditions: for average DI: mean of 4 DIi values
T1 construct: Residues 1–332 of human Siglec-2 (MW 140 kDa, purity > 95%) were cloned in frame with human IgG1 Fc and a C-terminal His6; made in house
T1 sequence (P20273 20-332): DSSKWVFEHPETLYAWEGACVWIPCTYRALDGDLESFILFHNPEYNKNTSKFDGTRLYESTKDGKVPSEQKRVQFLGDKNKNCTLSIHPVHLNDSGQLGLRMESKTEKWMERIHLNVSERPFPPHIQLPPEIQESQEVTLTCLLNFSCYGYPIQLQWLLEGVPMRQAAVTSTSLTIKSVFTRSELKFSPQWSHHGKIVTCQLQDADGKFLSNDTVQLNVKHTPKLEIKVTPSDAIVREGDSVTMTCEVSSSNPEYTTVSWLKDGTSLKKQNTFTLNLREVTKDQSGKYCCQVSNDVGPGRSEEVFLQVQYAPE

[3] = molecular target: Sambucus nigra lectin (SNA) (Sambucus nigra, UniProt Q41358); assay type: binding
[4] = system: Maackia amurensis lectins (MAA); assay: CUPRA library screening and affinity, MAA; assay type: binding; conditions: 50uM MAA; mean of 4 DIi values, FigS3c
Protocol: as §1, §2

[5] = molecular target: human carbonic anhydrase type 1 (Homo sapiens, UniProt P00915); assay: Direct ESI-MS affinity of OSmod for the universal proxy protein (UniPproxy)
[6] = molecular target: streptavidin homotetramer (S4) (Streptomyces avidinii, UniProt P22629); assay: CUPRA library screening against negative control streptavidin; assay type: binding; design: key: ratio change on GBP addition; ~1.0 = no binding (negative control); conditions: depletion index, 50 μM streptavidin
streptavidin homotetramer (S4), sequence (P22629 25-183): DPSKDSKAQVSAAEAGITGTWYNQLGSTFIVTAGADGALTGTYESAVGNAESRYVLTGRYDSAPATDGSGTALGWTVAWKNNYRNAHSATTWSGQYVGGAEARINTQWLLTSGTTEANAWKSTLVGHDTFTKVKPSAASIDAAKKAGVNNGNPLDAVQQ

Sambucus nigra lectin (SNA), sequence (Q41358 309-570 limits assumed): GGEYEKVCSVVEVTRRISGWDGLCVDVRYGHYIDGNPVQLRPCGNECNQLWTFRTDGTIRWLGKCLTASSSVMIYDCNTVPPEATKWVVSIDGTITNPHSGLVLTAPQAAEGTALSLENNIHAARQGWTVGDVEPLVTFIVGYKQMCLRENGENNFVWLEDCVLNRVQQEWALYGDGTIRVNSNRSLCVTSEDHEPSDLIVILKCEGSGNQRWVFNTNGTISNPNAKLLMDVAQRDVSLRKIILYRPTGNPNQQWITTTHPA
Sambucus nigra lectin (SNA), sequence (Q41358 29-289 partner limits assumed): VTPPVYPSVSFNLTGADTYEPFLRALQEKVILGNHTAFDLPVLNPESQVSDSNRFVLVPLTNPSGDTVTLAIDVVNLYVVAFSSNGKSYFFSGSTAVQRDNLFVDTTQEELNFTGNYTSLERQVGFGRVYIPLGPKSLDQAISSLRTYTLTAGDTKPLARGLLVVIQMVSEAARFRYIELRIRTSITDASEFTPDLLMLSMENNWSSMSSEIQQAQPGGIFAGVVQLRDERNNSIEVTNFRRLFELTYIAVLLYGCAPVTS
Cholera toxin B subunit homopentamer (CTB5), sequence (P01556 22-124 limits assumed): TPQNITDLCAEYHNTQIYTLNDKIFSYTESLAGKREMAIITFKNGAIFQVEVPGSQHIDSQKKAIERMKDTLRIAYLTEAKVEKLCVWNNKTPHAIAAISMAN
human carbonic anhydrase type 1, sequence (P00915 whole entry): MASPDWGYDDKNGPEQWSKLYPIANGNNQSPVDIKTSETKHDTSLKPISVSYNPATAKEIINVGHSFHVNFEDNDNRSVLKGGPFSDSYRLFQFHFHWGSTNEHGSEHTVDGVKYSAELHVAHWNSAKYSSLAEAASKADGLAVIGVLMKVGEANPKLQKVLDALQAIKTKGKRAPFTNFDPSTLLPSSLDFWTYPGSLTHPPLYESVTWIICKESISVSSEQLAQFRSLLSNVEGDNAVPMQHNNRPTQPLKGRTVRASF

CC(=O)N(CCOCCOCCNC(=O)C(Cc1ccccc1)NC(=O)C(Cc1ccccc1)NC(=O)CCCC(=O)NCCc1ccc(S(N)(=O)=O)cc1)C1OC(CO)C(OC2OC(CO)C(O)C(O)C2O)C(O)C1O (stereo not drawn) [HMO01, Galβ1-4Glc-CL]
average DI [1]: 1.026
DIi(2uM CTB5) [2]: 0.9935 and 0.9881 and 0.9983 and 0.9929
DIi(10uM CTB5) [2]: 0.9693 and 0.964 and 0.9533 and 0.9481
DIi(10uM CTB5 at 0C) [2]: 1.005 and 0.995 and 1.012 and 1.002
average DI [2]: 0.9932 and 0.9587 and 1.004
average DI (human siglec-2 (CD22); 25uM CD22): 1.013
DIi(25uM CD22) (human siglec-2 (CD22); 25uM CD22, replicate column 1 of 4): 1.023
DIi(25uM CD22) (human siglec-2 (CD22); 25uM CD22, replicate column 2 of 4): 1.029
DIi(25uM CD22) (human siglec-2 (CD22); 25uM CD22, replicate column 3 of 4): 0.9963
DIi(25uM CD22) (human siglec-2 (CD22); 25uM CD22, replicate column 4 of 4): 1.002
average DI (human siglec-2 (CD22); 25uM CD22 at 0C): 1.021
DIi(25uM CD22 at 0C) (human siglec-2 (CD22); 25uM CD22 at 0C, replicate column 1 of 4): 1.003
DIi(25uM CD22 at 0C) (human siglec-2 (CD22); 25uM CD22 at 0C, replicate column 2 of 4): 1.007
DIi(25uM CD22 at 0C) (human siglec-2 (CD22); 25uM CD22 at 0C, replicate column 3 of 4): 1.036
DIi(25uM CD22 at 0C) (human siglec-2 (CD22); 25uM CD22 at 0C, replicate column 4 of 4): 1.04
DIi(5uM SNA) [3]: 1.0284 and 1.03 and 1.033 and 1.035
average DI [3]: 1.032
average DI [4]: 1.065
Kd [5]: 5.1 ± 1.4 µM
average DI ([6]; mean of 4): 0.9888
DIi(50uM S4) ([6]; measurement 1 of 4): 0.9878
DIi(50uM S4) ([6]; measurement 2 of 4): 0.986
DIi(50uM S4) ([6]; measurement 3 of 4): 0.9917
DIi(50uM S4) ([6]; measurement 4 of 4): 0.9898
